Data published in patent US9850283B2, “Macrocyclic inhibitors of the PD-1/PD-L1 and CD80(B7-1)/PD-L1 protein/protein interactions” (BRISTOL-MYERS SQUIBB COMPANY, priority 2013, dated 2017).
Positions of bridges follow the written chain, without caps; N, C: chain ends. Non-standard residues stand in square brackets, D forms with d. Residues, ends and D or L forms follow the SMILES beside them. ξ: configuration not given here. NMeIle(3ξ) = CCC(C)[C@H](NC)C(=O)O; Hyp = O=C(O)[C@@H]1C[C@@H](O)CN1; NMeF = CN[C@@H](Cc1ccccc1)C(=O)O; NMeL = CN[C@@H](CC(C)C)C(=O)O; NMeNle = CCCC[C@H](NC)C(=O)O; NMeA = CN[C@@H](C)C(=O)O; Orn = NCCC[C@H](N)C(=O)O; Dab = NCC[C@H](N)C(=O)O; Dap = NC[C@H](N)C(=O)O

How the values were obtained:
Human PD-L1/PD-1 = biological target: T1, Human PD-L1/PD-1 (Homo sapiens, UniProt Q9NZQ7); test: HTRF PD-1-Ig/PD-L1-His binding assay (human PD-L1); details: cluster symbol; read-out: HTRF IC50 cluster
T1 construct: made in house; host or cells: HEK293T
T1 sequence (Q9NZQ7 with tags, fused parts or gaps): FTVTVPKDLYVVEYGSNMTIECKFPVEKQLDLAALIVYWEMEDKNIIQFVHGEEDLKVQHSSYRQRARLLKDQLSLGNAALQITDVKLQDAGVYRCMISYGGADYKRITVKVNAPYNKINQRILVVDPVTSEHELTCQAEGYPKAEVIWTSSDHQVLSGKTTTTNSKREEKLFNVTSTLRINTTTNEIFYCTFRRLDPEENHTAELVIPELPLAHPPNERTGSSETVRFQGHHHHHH
In short: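 Steps: truncated PD-1-Ig and PD-L1-His fusions are incubated in dPBS containing 0.1% (w/v) BSA and 0.05% (v/v) Tween-20. Detection antibodies are then added (Eu cryptate anti-Ig at 1 nM final, APC anti-His at 20 nM final), and time-resolved FRET is measured.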

[1] = biological target: T2, LK35.2-hPD-L1 cells / PE-labeled PD-1-Ig (Homo sapiens, UniProt Q9NZQ7); test: LK35.2-hPD-L1 cell binding high-content screening assay; format: cell-based; details: cell binding assay, cell line not given; cluster symbol; read-out: CBA IC50 cluster
T2 construct: expressed in transfected cells; host or cells: LK35.2 mouse B cell line
T2 sequence (Q9NZQ7 19-290): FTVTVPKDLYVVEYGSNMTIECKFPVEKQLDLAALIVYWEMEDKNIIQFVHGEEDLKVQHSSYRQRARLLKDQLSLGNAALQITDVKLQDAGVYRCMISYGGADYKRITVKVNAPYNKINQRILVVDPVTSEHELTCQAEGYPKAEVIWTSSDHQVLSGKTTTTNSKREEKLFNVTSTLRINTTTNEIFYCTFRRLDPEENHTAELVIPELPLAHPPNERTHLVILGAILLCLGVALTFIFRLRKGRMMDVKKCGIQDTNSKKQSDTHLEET
In short: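 Binding of PE-conjugated human PD-1-Ig (1 nM final) to human PD-L1 stably expressed on a mouse B-cell line (LK35.2) was measured by high-content imaging after washes. Compound and labeled PD-1-Ig were co-incubated 1 h at 37 °C with cells in RPMI/10% FCS.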

SMILES	IC50 (Human PD-L1/PD-1) [nM]	IC50 [1] [nM]
CCCC[C@H]1C(=O)N(C)[C@@H](CCCC)C(=O)N[C@@H](CO)C(=O)N[C@H](C(=O)NCC(N)=O)CSCC(=O)N[C@@H](Cc2ccc(O)cc2)C(=O)N(C)[C@@H](C)C(=O)N[C@@H](CO)C(=O)N2CCC[C@H]2C(=O)N[C@@H](CO)C(=O)N[C@@H](CO)C(=O)N2C[C@H](O)C[C@H]2C(=O)N[C@@H](Cc2c[nH]c3ccccc23)C(=O)N[C@@H](CO)C(=O)N[C@@H](Cc2c[nH]c3ccccc23)C(=O)N1C [Example 5135] ({CH2CO}-Y[NMeA]SPSS[Hyp]WSW[NMeNle][NMeNle]SCG-NH2; thioether N-14)	6.76 to 30.3	4.78 to 72.9
CCCC[C@H]1C(=O)N(C)[C@@H](CCCC)C(=O)N[C@@H](CCC(=O)O)C(=O)N[C@H](C(=O)NCC(N)=O)CSCC(=O)N[C@@H](Cc2ccc(O)cc2)C(=O)N(C)[C@@H](C)C(=O)N[C@@H](CC(=O)O)C(=O)N2CCC[C@H]2C(=O)N[C@@H](Cc2c[nH]cn2)C(=O)N[C@@H](CCCN)C(=O)N2C[C@H](O)C[C@H]2C(=O)N[C@@H](Cc2c[nH]c3ccccc23)C(=O)N[C@@H](CCCCN)C(=O)N[C@@H](Cc2c[nH]c3ccccc23)C(=O)N1C [Example 5137] ({CH2CO}-Y[NMeA]DPH[Orn][Hyp]WKW[NMeNle][NMeNle]ECG-NH2; thioether N-14)	0.385 to 6.74	0.158 to 4.71
CCCC[C@H]1C(=O)N(C)[C@@H](CCCC)C(=O)N[C@@H](CCC(=O)O)C(=O)N[C@H](C(=O)NCC(N)=O)CSCC(=O)N[C@@H](Cc2ccc(O)cc2)C(=O)N(C)[C@@H](C)C(=O)N[C@@H](CCC(=O)O)C(=O)N2CCC[C@H]2C(=O)N[C@@H](Cc2c[nH]cn2)C(=O)N[C@@H](CCCN)C(=O)N2C[C@H](O)C[C@H]2C(=O)N[C@@H](Cc2c[nH]c3ccccc23)C(=O)N[C@@H](CCCCN)C(=O)N[C@@H](Cc2c[nH]c3ccccc23)C(=O)N1C [Example 5138] ({CH2CO}-Y[NMeA]EPH[Orn][Hyp]WKW[NMeNle][NMeNle]ECG-NH2; thioether N-14)	0.385 to 6.74	0.158 to 4.71
CCCC[C@H]1C(=O)N(C)[C@@H](CCCC)C(=O)N[C@@H](CCCCN)C(=O)N[C@H](C(=O)NCC(N)=O)CSCC(=O)N[C@@H](Cc2ccc(O)cc2)C(=O)N(C)[C@@H](C)C(=O)N[C@@H](CC(N)=O)C(=O)N2CCC[C@H]2C(=O)N[C@@H](Cc2c[nH]cn2)C(=O)N[C@@H](CCC(=O)O)C(=O)N2C[C@H](O)C[C@H]2C(=O)N[C@@H](Cc2c[nH]c3ccccc23)C(=O)N[C@@H](CO)C(=O)N[C@@H](Cc2c[nH]c3ccccc23)C(=O)N1C [Example 5139] ({CH2CO}-Y[NMeA]NPHE[Hyp]WSW[NMeNle][NMeNle]KCG-NH2; thioether N-14)	0.385 to 6.74	0.158 to 4.71
CCCC[C@H]1C(=O)N(C)[C@@H](CCCC)C(=O)N[C@@H](CCN)C(=O)N[C@H](C(=O)NCC(N)=O)CSCC(=O)N[C@@H](Cc2ccc(O)cc2)C(=O)N(C)[C@@H](C)C(=O)N[C@@H](CCN)C(=O)N2CCC[C@H]2C(=O)N[C@@H](CN)C(=O)N[C@@H](CC(C)C)C(=O)N2C[C@H](O)C[C@H]2C(=O)N[C@@H](Cc2c[nH]c3ccccc23)C(=O)N[C@@H](CCN)C(=O)N[C@@H](Cc2c[nH]c3ccccc23)C(=O)N1C [Example 5140] ({CH2CO}-Y[NMeA][Dab]P[Dap]L[Hyp]W[Dab]W[NMeNle][NMeNle][Dab]CG-NH2; thioether N-14)	6.76 to 30.3	4.78 to 72.9

Second part, the compound after the results:

IC50 (Human PD-L1/PD-1) [nM]	IC50 [1] [nM]	SMILES
0.385 to 6.74	4.78 to 72.9	CCCC[C@H]1C(=O)N(C)[C@@H](CC(C)C)C(=O)N[C@@H](CN)C(=O)N[C@H](C(=O)NCC(N)=O)CSCC(=O)N[C@@H](Cc2ccc(O)cc2)C(=O)N(C)[C@@H](C)C(=O)N[C@@H](CC(N)=O)C(=O)N2CCC[C@H]2C(=O)N[C@@H](Cc2c[nH]cn2)C(=O)N[C@@H](CCC(=O)O)C(=O)N2C[C@H](O)C[C@H]2C(=O)N[C@@H](Cc2c[nH]c3ccccc23)C(=O)N[C@@H](CCN)C(=O)N[C@@H](Cc2c[nH]c3ccccc23)C(=O)N1C [Example 5141] ({CH2CO}-Y[NMeA]NPHE[Hyp]W[Dab]W[NMeNle][NMeL][Dap]CG-NH2; thioether N-14)
6.76 to 30.3	4.78 to 72.9	CCCC[C@H]1C(=O)N(C)[C@@H](C(C)CC)C(=O)N[C@@H](CN)C(=O)N[C@H](C(=O)NCC(N)=O)CSCC(=O)N[C@@H](Cc2ccc(O)cc2)C(=O)N(C)[C@@H](C)C(=O)N[C@@H](CC(N)=O)C(=O)N2CCC[C@H]2C(=O)N[C@@H](Cc2c[nH]cn2)C(=O)N[C@@H](CCC(=O)O)C(=O)N2C[C@H](O)C[C@H]2C(=O)N[C@@H](Cc2c[nH]c3ccccc23)C(=O)N[C@@H](CCN)C(=O)N[C@@H](Cc2c[nH]c3ccccc23)C(=O)N1C (stereo partly shown) [Example 5142] ({CH2CO}-Y[NMeA]NPHE[Hyp]W[Dab]W[NMeNle][NMeIle(3ξ)][Dap]CG-NH2; thioether N-14)
0.385 to 6.74	4.78 to 72.9	CCCC[C@H]1C(=O)N[C@@H](CN)C(=O)N[C@H](C(=O)NCC(N)=O)CSCC(=O)N[C@@H](Cc2ccc(O)cc2)C(=O)N(C)[C@@H](C)C(=O)N[C@@H](CC(N)=O)C(=O)N2CCC[C@H]2C(=O)N[C@@H](Cc2c[nH]cn2)C(=O)N[C@@H](CCC(=O)O)C(=O)N2C[C@H](O)C[C@H]2C(=O)N[C@@H](Cc2c[nH]c3ccccc23)C(=O)N[C@@H](CCN)C(=O)N[C@@H](Cc2c[nH]c3ccccc23)C(=O)N(C)[C@@H](CC(C)C)C(=O)N1C [Example 5143] ({CH2CO}-Y[NMeA]NPHE[Hyp]W[Dab]W[NMeL][NMeNle][Dap]CG-NH2; thioether N-14)
0.385 to 6.74	0.158 to 4.71	CCCC[C@H]1C(=O)N[C@@H](CN)C(=O)N[C@H](C(=O)NCC(N)=O)CSCC(=O)N[C@@H](Cc2ccc(O)cc2)C(=O)N(C)[C@@H](C)C(=O)N[C@@H](CC(N)=O)C(=O)N2CCC[C@H]2C(=O)N[C@@H](Cc2c[nH]cn2)C(=O)N[C@@H](CCC(=O)O)C(=O)N2C[C@H](O)C[C@H]2C(=O)N[C@@H](Cc2c[nH]c3ccccc23)C(=O)N[C@@H](CCN)C(=O)N[C@@H](Cc2c[nH]c3ccccc23)C(=O)N(C)[C@@H](Cc2ccccc2)C(=O)N1C [Example 5144] ({CH2CO}-Y[NMeA]NPHE[Hyp]W[Dab]W[NMeF][NMeNle][Dap]CG-NH2; thioether N-14)
6.76 to 30.3	4.78 to 72.9	CCCC[C@H]1C(=O)N[C@@H](CN)C(=O)N[C@H](C(=O)NCC(N)=O)CSCC(=O)N[C@@H](Cc2ccc(O)cc2)C(=O)N(C)[C@@H](C)C(=O)N[C@@H](CC(N)=O)C(=O)N2CCC[C@H]2C(=O)N[C@@H](Cc2c[nH]cn2)C(=O)N[C@@H](CCC(=O)O)C(=O)N2C[C@H](O)C[C@H]2C(=O)N[C@@H](Cc2c[nH]c3ccccc23)C(=O)N[C@@H](CCN)C(=O)N[C@@H](Cc2c[nH]c3ccccc23)C(=O)N(C)[C@@H](C(C)CC)C(=O)N1C (stereo partly shown) [Example 5146] ({CH2CO}-Y[NMeA]NPHE[Hyp]W[Dab]W[NMeIle(3ξ)][NMeNle][Dap]CG-NH2; thioether N-14)
0.385 to 6.74	4.78 to 72.9	CCCC[C@H]1C(=O)N(C)[C@@H](Cc2ccccc2)C(=O)N[C@@H](CN)C(=O)N[C@H](C(=O)NCC(N)=O)CSCC(=O)N[C@@H](Cc2ccc(O)cc2)C(=O)N(C)[C@@H](C)C(=O)N[C@@H](CC(N)=O)C(=O)N2CCC[C@H]2C(=O)N[C@@H](Cc2c[nH]cn2)C(=O)N[C@@H](CCC(=O)O)C(=O)N2C[C@H](O)C[C@H]2C(=O)N[C@@H](Cc2c[nH]c3ccccc23)C(=O)N[C@@H](CCN)C(=O)N[C@@H](Cc2c[nH]c3ccccc23)C(=O)N1C [Example 5147] ({CH2CO}-Y[NMeA]NPHE[Hyp]W[Dab]W[NMeNle][NMeF][Dap]CG-NH2; thioether N-14)
